Patent publication US5750530A, “Pharmaceutical diketopiperazine compounds” (Xenova Limited, priority 1994, dated 1998)
Where a name gives a salt, the structure may show the parent alone.

Target: PAI-1 (Homo sapiens, UniProt P05121)
Assay: biochemical
Assay type: biochemical
Conditions: for IC50: PAI chromogenic substrate assay
Protocol: The present compounds have been tested in a PAI functional assay. In this assay, a compound is incubated with PAI-1 prior to addition to the tPA assay system. Inhibition of PAI-1 results in the production of plasmin from plasminogen. In turn, plasmin cleaves the chromogenic substrate S2251 (Kabi Vitrum) producing pNA (p-nitroaniline) which is detected spectrophotometrically at 405 nm (K. Nilsson et al, Fibrinolysis (1987) 1, 163-168).
The present compounds were tested in a PAI chromogenic substrate assay. In the assay (K. Nilsson, Fibrinolysis (1987) 1, 163-168) each compound was incubated with PAI-1 prior to addition to the tPA assay system. […] In turn, the plasmin cleaved the chromogenic substrate S2251 (Kabi-Vitrum) producing pNA (p-nitroaniline) which was detected spectrophotometrically at 405 nm.
The degrees of inhibition observed in the chromogenic substrate assay at various concentrations, or the IC50 values, for each compound are presented in Table 1.

Sequence of PAI-1 (P05121 24-402): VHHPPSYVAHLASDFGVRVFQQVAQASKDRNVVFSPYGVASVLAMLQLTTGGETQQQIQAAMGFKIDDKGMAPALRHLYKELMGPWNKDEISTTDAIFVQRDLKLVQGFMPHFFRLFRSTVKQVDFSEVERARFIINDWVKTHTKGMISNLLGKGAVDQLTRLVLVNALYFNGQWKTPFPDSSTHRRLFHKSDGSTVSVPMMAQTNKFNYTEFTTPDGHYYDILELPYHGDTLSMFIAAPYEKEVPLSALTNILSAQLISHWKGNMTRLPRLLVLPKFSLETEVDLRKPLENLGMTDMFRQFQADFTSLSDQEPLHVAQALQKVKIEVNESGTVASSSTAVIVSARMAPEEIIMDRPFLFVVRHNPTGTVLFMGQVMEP

## CN(C)CCSc1ccc(/C=c2\[nH]c(=O)/c(=C/c3ccc(N(C)C)cc3)[nH]c2=O)cc1 [Compound 5424, (3Z,6Z)-3-(4-Dimethylaminobenzylidene)-6-(4-(2-dimethylaminoethylthio)benzylidene)-2,5-piperazinedione]
5 μm
  % Inhibition: 6%
20 μm
  % Inhibition: 23%
  IC50: 13.7 µM

## CN(C)CCSc1ccc(/C=c2\[nH]c(=O)/c(=C/c3ccc(N(C)C)cc3)[nH]c2=O)cc1 [Compound 5424.HCl, (3Z,6Z)-3-(4-Dimethylaminobenzylidene)-6-(4-(2-dimethylaminoethylthio)benzylidene)-2,5-piperazinedione]
5 μm
  % Inhibition: 8%
20 μm
  % Inhibition: 45%
  IC50: 15.7 µM

## CN(C)CCSc1ccc(/C=c2\[nH]c(=O)/c(=C/c3cccc(Br)c3)[nH]c2=O)cc1 [Compound 5425, (3Z,6Z)-3-(3-Bromobenzylidene)-6-(4-(2-dimethylaminoethylthio)benzylidene)-2,5-piperazinedione]
5 μm
  % Inhibition: 37%
20 μm
  % Inhibition: 57%
  IC50: 3.7 µM

## CN(C)CCSc1ccc(/C=c2\[nH]c(=O)/c(=C/c3cccc(Br)c3)[nH]c2=O)cc1 [Compound 5425.HCl, (3Z,6Z)-3-(3-Bromobenzylidene)-6-(4-(2-dimethylaminoethylthio)benzylidene)-2,5-piperazinedione]
5 μm
  % Inhibition: 56%
20 μm
  % Inhibition: 47%
  IC50: 2.2 µM

## CSc1ccc(/C=c2\[nH]c(=O)/c(=C/c3ccc(SCCN(C)C)cc3)[nH]c2=O)cc1 [Compound 5426, (3Z,6Z)-3-(4-(2-Dimethylaminoethylthio)benzylidene)-6-(4-methylthiobenzyidene)-2,5-piperazinedione]
5 μm
  % Inhibition: 25%
20 μm
  % Inhibition: 52%
  IC50: 5.7 µM

## CSc1ccc(/C=c2\[nH]c(=O)/c(=C/c3ccc(SCCN(C)C)cc3)[nH]c2=O)cc1 [Compound 5426.HCl, (3Z,6Z)-3-(4-(2-Dimethylaminoethylthio)benzylidene)-6-(4-methylthiobenzyidene)-2,5-piperazinedione]
5 μm
  % Inhibition: 35%
20 μm
  % Inhibition: 55%
  IC50: 5.4 µM

## CN(C)CCSc1ccc(/C=c2\[nH]c(=O)/c(=C/c3ccc(Cl)cc3)[nH]c2=O)cc1 [Compound 5437, (3Z,6Z)-3-(4-Chlorobenzylidene)-6-(4-(2-dimethylaminoethylthio)benzylidene)-2,5-piperazinedione]
5 μm
  % Inhibition: 8%
20 μm
  % Inhibition: 41%
  IC50: 20 µM

## CN(C)CCSc1ccc(/C=c2\[nH]c(=O)/c(=C/c3ccc(Cl)cc3)[nH]c2=O)cc1 [Compound 5437.HCl, (3Z,6Z)-3-(4-Chlorobenzylidene)-6-(4-(2-dimethylaminoethylthio)benzylidene)-2,5-piperazinedione]
5 μm
  % Inhibition: 18%
20 μm
  % Inhibition: 44%
  IC50: 16.5 µM

## COc1cccc(/C=c2\[nH]c(=O)/c(=C/c3ccc(SCCN(C)C)cc3)[nH]c2=O)c1 [Compound 5438, (3Z,6Z)-6-(4-(2-Dimethylaminoethylthio)benzylidene)-3-(3-methoxybenzylidene)-2,5-piperazinedione]
20 μm
  % Inhibition: 18%

## COc1cccc(/C=c2\[nH]c(=O)/c(=C/c3ccc(SCCN(C)C)cc3)[nH]c2=O)c1 [Compound 5438.HCl, (3Z,6Z)-6-(4-(2-Dimethylaminoethylthio)benzylidene)-3-(3-methoxybenzylidene)-2,5-piperazinedione]
5 μm
  % Inhibition: 3%

## Cc1cccc(/C=c2\[nH]c(=O)/c(=C/c3ccc(SCCN(C)C)cc3)[nH]c2=O)c1 [Compound 5439, (3Z,6Z)-6-(4-(2-Dimethylaminoethylthio)benzylidene)-3-(3-methylbenzylidene)-2,5-piperazinedione]
5 μm
  % Inhibition: 5%
20 μm
  % Inhibition: 46%
  IC50: 15 µM

## Cc1cccc(/C=c2\[nH]c(=O)/c(=C/c3ccc(SCCN(C)C)cc3)[nH]c2=O)c1 [Compound 5439.HCl, (3Z,6Z)-6-(4-(2-Dimethylaminoethylthio)benzylidene)-3-(3-methylbenzylidene)-2,5-piperazinedione]
5 μm
  % Inhibition: 6%
20 μm
  % Inhibition: 35%
  IC50: 17 µM

## CN(C)CCSc1ccc(/C=c2\[nH]c(=O)/c(=C/c3ccc(C(C)(C)C)cc3)[nH]c2=O)cc1 [Compound 5440, (3Z,6Z)-3-(4-(2-Dimethylaminoethylthio)benzylidene)-6-(4-tert-butylbenzylidene)-2,5-piperazinedione]
5 μm
  % Inhibition: 11%
20 μm
  % Inhibition: 30%

## CN(C)CCSc1ccc(/C=c2\[nH]c(=O)/c(=C/c3ccc(C(C)(C)C)cc3)[nH]c2=O)cc1 [Compound 5440.HCl, (3Z,6Z)-3-(4-(2-Dimethylaminoethylthio)benzylidene)-6-(4-tert-butylbenzylidene)-2,5-piperazinedione]
5 μm
  % Inhibition: 20%
20 μm
  % Inhibition: 36%

## CC(C)/C=c1\[nH]c(=O)/c(=C/c2ccc(SCCN(C)C)s2)[nH]c1=O [Compound 5448, (3Z,6Z)-3-(5-(2-Dimethylaminoethylthio)-2-thienyl)methylene-6-(2-methylpropylidene)-2,5-piperazinedione]
5 μm
  % Inhibition: 0%
20 μm
  % Inhibition: 0%

## CN(C)CCSc1ccc(/C=c2\[nH]c(=O)/c(=C/C3CCCCC3)[nH]c2=O)s1 [Compound 5454, (3Z,6Z)-6-Cyclohexylmethylene-3-(5-(2-dimethylaminoethylthio)-2-thienyl)methylene-2,5-piperazinedione]
5 μm
  % Inhibition: 47%
20 μm
  % Inhibition: 75%
  IC50: 5.5 µM

## CN(C)CCSc1ccc(/C=c2\[nH]c(=O)/c(=C/C3CCCCC3)[nH]c2=O)s1 [Compound 5454.HCl, (3Z,6Z)-6-Cyclohexylmethylene-3-(5-(2-dimethylaminoethylthio)-2-thienyl)methylene-2,5-piperazinedione]
5 μm
  % Inhibition: 25%
20 μm
  % Inhibition: 69%
  IC50: 5.3 µM

## CN(C)CCSc1ccc(/C=c2\[nH]c(=O)/c(=C/CC3CCCC(C)(C)C3)[nH]c2=O)s1 (stereo not shown) [Compound 5455, (3Z,6Z)-3-(5-(2-Dimethylaminoethylthio)-2-thienyl)methylene-6-(2-(3,3-dimethylcyclohexyl)ethylidene)-2,5-piperazinedione]
5 μm
  % Inhibition: 30%
20 μm
  % Inhibition: 59%
  IC50: 6.5 µM

## Cc1ccc(/C=c2\[nH]c(=O)/c(=C/c3ccc(SCCN(C)C)s3)[nH]c2=O)cc1 [Compound 5460, (3Z,6Z)-3-(5-(2-Dimethylaminoethylthio)-2-thienyl)methylene-6-(4-methylbenzylidene)-2,5-piperazinedione]
5 μm
  % Inhibition: 34%
20 μm
  % Inhibition: 83%
  IC50: 12.2 µM

## Cc1ccc(/C=c2\[nH]c(=O)/c(=C/c3ccc(SCCN(C)C)s3)[nH]c2=O)cc1 [Compound 5460.HCl, (3Z,6Z)-3-(5-(2-Dimethylaminoethylthio)-2-thienyl)methylene-6-(4-methylbenzylidene)-2,5-piperazinedione]
5 μm
  % Inhibition: 31%
20 μm
  % Inhibition: 78%
  IC50: 12.6 µM

## CN(C)CCSc1ccc(/C=c2\[nH]c(=O)/c(=C/c3ccc([N+](=O)[O-])cc3)[nH]c2=O)cc1 [Compound 5461, (3Z,6Z)-3-(4-(2-Dimethylaminoethylthio)benzylidene)-6-(4-nitrobenzylidene)-2,5-piperazinedione]
5 μm
  % Inhibition: 1%
20 μm
  % Inhibition: 44%
